This note sets out measurements from US11198713B2, “Agents modulating beta-catenin functions and methods thereof” (FOG PHARMACEUTICALS, INC., priority 2017, dated 2021).

Broadly, the EC50 is the concentration that produces a half-maximal response.

This experiment addresses T1, full-length beta-catenin (Axin site) (Homo sapiens, UniProt P35222).
T1 construct: 15 nM full-length beta-catenin, 20 nM FITC labeled peptide in buffer
T1 sequence (P35222 1-781): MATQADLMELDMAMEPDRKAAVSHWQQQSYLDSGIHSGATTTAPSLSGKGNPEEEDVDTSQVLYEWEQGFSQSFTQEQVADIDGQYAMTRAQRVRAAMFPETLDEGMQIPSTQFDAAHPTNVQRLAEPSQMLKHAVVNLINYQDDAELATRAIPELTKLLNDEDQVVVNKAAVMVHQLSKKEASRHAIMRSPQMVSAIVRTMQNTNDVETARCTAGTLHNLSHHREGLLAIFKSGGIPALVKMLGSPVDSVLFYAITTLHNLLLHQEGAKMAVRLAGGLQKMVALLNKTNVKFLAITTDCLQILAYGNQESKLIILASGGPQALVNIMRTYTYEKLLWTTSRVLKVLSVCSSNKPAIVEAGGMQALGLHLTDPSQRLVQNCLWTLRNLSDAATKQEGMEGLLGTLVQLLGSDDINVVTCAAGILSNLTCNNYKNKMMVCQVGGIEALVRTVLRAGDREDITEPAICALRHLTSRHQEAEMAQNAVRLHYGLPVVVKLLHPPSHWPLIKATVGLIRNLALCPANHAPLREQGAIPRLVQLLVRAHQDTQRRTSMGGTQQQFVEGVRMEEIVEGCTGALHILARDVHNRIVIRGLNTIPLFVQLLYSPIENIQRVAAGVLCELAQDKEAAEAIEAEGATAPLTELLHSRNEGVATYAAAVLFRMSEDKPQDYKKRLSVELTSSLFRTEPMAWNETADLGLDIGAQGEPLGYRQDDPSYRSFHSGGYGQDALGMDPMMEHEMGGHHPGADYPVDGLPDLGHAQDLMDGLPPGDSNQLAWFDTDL
The experiment can be described thus: Competition fluorescence polarization assay (Axin site probe). Type of experiment: binding. To be noted: competition fluorescence polarization, Table 2; read-out: in vitro FP EC50. Put shortly: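 Competition FP: 15 nM full-length β-catenin pre-incubated 5 min with 20 nM FITC-labelled stapled Axin-site peptide, then titrated peptide added (3-fold series from 5 μM) for 15 min in the dark. Buffer 50 mM Tris pH 8.0, 250 mM NaCl, 2% glycerol, 0.5 mM EDTA; duplicate reads.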
In general terms: Polarisation of emitted light reports the rotation of a fluorescent probe.
Consider `CC[C@H](C)[C@@H]1NC(=O)[C@](C)(NC(=O)[C@H](CCC(N)=O)NC(=O)[C@@H]2CCCN2C(C)=O)CCC=CCOC(=O)N2CC(C(=O)N[C@@H](Cc3c[nH]cn3)C(=O)N[C@H](C(=O)N[C@@H](CCCNC(=N)N)C(=O)N[C@@H](CCCNC(=N)N)C(=O)N[C@H](C(=O)N[C@@H](Cc3c[nH]c4ccccc34)C(=O)N[C@@H](CCCNC(=N)N)C(N)=O)C(C)C)C(C)C)(C2)NC(=O)[C@H](CC(=O)O)NC(=O)[C@H](CC(C)C)NC1=O` (single isomer, unassigned) [FP0731c, Ac-P-Q-R4-I-L-D-MA-H-V-R-R-V-W-R-NH2], for which the EC50 lay in the range of 0.5 to 5 µM.

`CC[C@H](C)[C@@H]1NC(=O)[C@](C)(NC(=O)[C@H](CCC(N)=O)NC(=O)[C@@H]2CCCN2C(C)=O)CCCC=CCOC(=O)N2CC(C(=O)N[C@@H](Cc3c[nH]cn3)C(=O)N[C@H](C(=O)N[C@@H](CCCNC(=N)N)C(=O)N[C@@H](CCCNC(=N)N)C(=O)N[C@H](C(=O)N[C@@H](Cc3c[nH]c4ccccc34)C(=O)N[C@@H](CCCNC(=N)N)C(N)=O)C(C)C)C(C)C)(C2)NC(=O)[C@H](CC(=O)O)NC(=O)[C@H](CC(C)C)NC1=O` (single isomer, unassigned) [FP0733c, Ac-P-Q-R5-I-L-D-MA-H-V-R-R-V-W-R-NH2]: the EC50 was 0.5 to 5 µM. For the compound `CC[C@H](C)[C@@H]1NC(=O)[C@@](C)(NC(=O)[C@H](CCC(N)=O)NC(=O)[C@@H]2CCCN2C(C)=O)CCCC=CCN2CC(C(=O)N[C@@H](Cc3c[nH]cn3)C(=O)N[C@H](C(=O)N[C@@H](CCCNC(=N)N)C(=O)N[C@@H](CCCNC(=N)N)C(=O)N[C@H](C(=O)N[C@@H](Cc3c[nH]c4ccccc34)C(=O)N[C@@H](CCCNC(=N)N)C(N)=O)C(C)C)C(C)C)(C2)NC(=O)[C@H](CC(=O)O)NC(=O)[C@H](CC(C)C)NC1=O` (single isomer, unassigned) [FP0734a, Ac-P-Q-S5-I-L-D-MA-H-V-R-R-V-W-R-NH2], the EC50 is over 5 µM.

On to `CC[C@H](C)[C@@H]1NC(=O)[C@@](C)(NC(=O)[C@H](CCC(N)=O)NC(=O)[C@@H]2CCCN2C(C)=O)CCCC=CCOC(=O)N2CC(C(=O)N[C@@H](Cc3c[nH]cn3)C(=O)N[C@H](C(=O)N[C@@H](CCCNC(=N)N)C(=O)N[C@@H](CCCNC(=N)N)C(=O)N[C@H](C(=O)N[C@@H](Cc3c[nH]c4ccccc34)C(=O)N[C@@H](CCCNC(=N)N)C(N)=O)C(C)C)C(C)C)(C2)NC(=O)[C@H](CC(=O)O)NC(=O)[C@H](CC(C)C)NC1=O` (single isomer, unassigned) [FP0734c, Ac-P-Q-S5-I-L-D-MA-H-V-R-R-V-W-R-NH2], for which the EC50 was over 5 µM. For the compound `CC[C@H](C)[C@@H]1NC(=O)[C@](C)(NC(=O)[C@H](CCC(N)=O)NC(=O)[C@@H]2CCCN2C(C)=O)CCCCC=CCN2CC(C(=O)N[C@@H](Cc3c[nH]cn3)C(=O)N[C@H](C(=O)N[C@@H](CCCNC(=N)N)C(=O)N[C@@H](CCCNC(=N)N)C(=O)N[C@H](C(=O)N[C@@H](Cc3c[nH]c4ccccc34)C(=O)N[C@@H](CCCNC(=N)N)C(N)=O)C(C)C)C(C)C)(C2)NC(=O)[C@H](CC(=O)O)NC(=O)[C@H](CC(C)C)NC1=O` (single isomer, unassigned) [FP0735a, Ac-P-Q-R6-I-L-D-MA-H-V-R-R-V-W-R-NH2], the EC50 lay within 0.5 to 5 µM. The value for `CC[C@H](C)[C@@H]1NC(=O)[C@](C)(NC(=O)[C@H](CCC(N)=O)NC(=O)[C@@H]2CCCN2C(C)=O)CCCCC=CCOC(=O)N2CC(C(=O)N[C@@H](Cc3c[nH]cn3)C(=O)N[C@H](C(=O)N[C@@H](CCCNC(=N)N)C(=O)N[C@@H](CCCNC(=N)N)C(=O)N[C@H](C(=O)N[C@@H](Cc3c[nH]c4ccccc34)C(=O)N[C@@H](CCCNC(=N)N)C(N)=O)C(C)C)C(C)C)(C2)NC(=O)[C@H](CC(=O)O)NC(=O)[C@H](CC(C)C)NC1=O` (single isomer, unassigned) [FP0735c, Ac-P-Q-R6-I-L-D-MA-H-V-R-R-V-W-R-NH2] was 0.5 to 5 µM. With `CC[C@H](C)[C@@H]1NC(=O)[C@@](C)(NC(=O)[C@H](CCC(N)=O)NC(=O)[C@@H]2CCCN2C(C)=O)CCCCC=CCN2CC(C(=O)N[C@@H](Cc3c[nH]cn3)C(=O)N[C@H](C(=O)N[C@@H](CCCNC(=N)N)C(=O)N[C@@H](CCCNC(=N)N)C(=O)N[C@H](C(=O)N[C@@H](Cc3c[nH]c4ccccc34)C(=O)N[C@@H](CCCNC(=N)N)C(N)=O)C(C)C)C(C)C)(C2)NC(=O)[C@H](CC(=O)O)NC(=O)[C@H](CC(C)C)NC1=O` (single isomer, unassigned) [FP0736a, Ac-P-Q-S6-I-L-D-MA-H-V-R-R-V-W-R-NH2], the EC50 was 0.1 to 0.5 µM. As to `CC[C@H](C)[C@@H]1NC(=O)[C@@](C)(NC(=O)[C@H](CCC(N)=O)NC(=O)[C@@H]2CCCN2C(C)=O)CCCCC=CCOC(=O)N2CC(C(=O)N[C@@H](Cc3c[nH]cn3)C(=O)N[C@H](C(=O)N[C@@H](CCCNC(=N)N)C(=O)N[C@@H](CCCNC(=N)N)C(=O)N[C@H](C(=O)N[C@@H](Cc3c[nH]c4ccccc34)C(=O)N[C@@H](CCCNC(=N)N)C(N)=O)C(C)C)C(C)C)(C2)NC(=O)[C@H](CC(=O)O)NC(=O)[C@H](CC(C)C)NC1=O` (single isomer, unassigned) [FP0736c, Ac-P-Q-S6-I-L-D-MA-H-V-R-R-V-W-R-NH2], the EC50 was 0.5 to 5 µM.

For `CC[C@H](C)[C@@H]1NC(=O)[C@@](C)(NC(=O)[C@H](CCC(N)=O)NC(=O)[C@@H]2CCCN2C(C)=O)CCCCCC=CCOC(=O)N2CC(C(=O)N[C@@H](Cc3c[nH]cn3)C(=O)N[C@H](C(=O)N[C@@H](CCCNC(=N)N)C(=O)N[C@@H](CCCNC(=N)N)C(=O)N[C@H](C(=O)N[C@@H](Cc3c[nH]c4ccccc34)C(=O)N[C@@H](CCCNC(=N)N)C(N)=O)C(C)C)C(C)C)(C2)NC(=O)[C@H](CC(=O)O)NC(=O)[C@H](CC(C)C)NC1=O` (single isomer, unassigned) [FP0738c, Ac-P-Q-S7-I-L-D-MA-H-V-R-R-V-W-R-NH2], the concentration giving a half-maximal response (EC50) lay in the range of 0.5 to 5 µM. Consider `CC[C@H](C)[C@@H]1NC(=O)[C@@]2(NC(=O)[C@H](CCC(N)=O)NC(=O)[C@@H]3CCCN3C(C)=O)CCN(CC=CCCC[C@](C)(C(=O)N[C@@H](Cc3c[nH]cn3)C(=O)N[C@H](C(=O)N[C@@H](CCCNC(=N)N)C(=O)N[C@@H](CCCNC(=N)N)C(=O)N[C@H](C(=O)N[C@@H](Cc3c[nH]c4ccccc34)C(=O)N[C@@H](CCCNC(=N)N)C(N)=O)C(C)C)C(C)C)NC(=O)[C@H](CC(=O)O)NC(=O)[C@H](CC(C)C)NC1=O)C2` (single isomer, unassigned) [FP0743a, Ac-P-Q-MC-I-L-D-R5-H-V-R-R-V-W-R-NH2], for which the half-maximal effective concentration (EC50) is over 5 µM.

With `CC[C@H](C)[C@@H]1NC(=O)[C@@]2(NC(=O)[C@H](CCC(N)=O)NC(=O)[C@@H]3CCCN3C(C)=O)CCN(C2)C(=O)OCC=CCCC[C@](C)(C(=O)N[C@@H](Cc2c[nH]cn2)C(=O)N[C@H](C(=O)N[C@@H](CCCNC(=N)N)C(=O)N[C@@H](CCCNC(=N)N)C(=O)N[C@H](C(=O)N[C@@H](Cc2c[nH]c3ccccc23)C(=O)N[C@@H](CCCNC(=N)N)C(N)=O)C(C)C)C(C)C)NC(=O)[C@H](CC(=O)O)NC(=O)[C@H](CC(C)C)NC1=O` (single isomer, unassigned) [FP0743c, Ac-P-Q-MC-I-L-D-R5-H-V-R-R-V-W-R-NH2], the EC50 was in the range of 0.5 to 5 µM.
